The values below come from the RepoRT retention time repository.

The series can be described thus: RP, Thermo Scientific Hypersil GOLD, 1.9 µm, 40 °C, 0.4 mL/min; A: water + 0.1% formic acid, pH 3; B: acetonitrile + 0.1% formic acid, pH 3; gradient (min/%B) 0/0 1/0 11/100 13/100 14/0 16/0. As to conditions: stereoisomer not certain.

For the compound `C[N+](C)(C)CCOP(=O)(O)OP(=O)([O-])OCC1OC(n2ccc(N)nc2=O)C(O)C1O` (stereo not drawn) [CITICOLINE], the LC retention time was 0.64 min. Turning to `CC(O)(CC(=O)O)C(=O)O` (stereo not drawn) [CITRAMALATE], the LC retention time worked out at 1.23 min. To `O=C(O)CC(O)(CC(=O)O)C(=O)O` [CITRATE] belongs 0.9 min. With `NC(=O)NCCCC(N)C(=O)O` (stereo not drawn) [CITRULLINE], the LC retention time was 0.65 min. On to `CC12CCC(=O)C=C1CCC1C2CCC2(C)C1CCC2(O)C(=O)CO` (stereo not drawn) [CORTEXOLONE], for which the LC retention time turned out to be 7.48 min. To `CC12CCC(=O)C=C1CCC1C2C(O)CC2(C)C(C(=O)CO)CCC12` (stereo not drawn) [CORTICOSTERONE] belongs 7.47 min; to `CC(=O)OCC(=O)C1(O)CCC2C3CCC4=CC(=O)CCC4(C)C3C(O)CC21C` (stereo not drawn) [CORTISOL 21-ACETATE], 7.67 min; to `CC12CCC(=O)C=C1CCC1C2C(O)CC2(C)C1CCC2(O)C(=O)CO` (stereo not drawn) [CORTISOL], 6.73 min. For the compound `CC12CCC(=O)C=C1CCC1C2C(=O)CC2(C)C1CCC2(O)C(=O)CO` (stereo not drawn) [CORTISONE], the LC retention time is 6.81 min. On to `CN(CC(=O)O)C(=N)N` [CREATINE], for which the LC retention time amounted to 0.66 min. As to `CN1CC(=O)NC1=N` [CREATININE], the LC retention time amounted to 0.62 min. On to `Nc1nc2c(ncn2C2OC3COP(=O)(O)OC3C2O)c(=O)[nH]1` (stereo not drawn) [CYCLIC GMP], for which the LC retention time is 1.29 min. Consider `NC(CS)C(=O)NCC(=O)O` (stereo not drawn) [CYS-GLY], for which the LC retention time is 0.59 min.

Take `NC(CCSCC(N)C(=O)O)C(=O)O` (stereo not drawn) [CYSTATHIONINE]: the LC retention time came to 0.61 min.

On to `NC(CS(=O)(=O)O)C(=O)O` (stereo not drawn) [CYSTEATE], for which the LC retention time is 0.65 min. For the compound `NC(CSSCC(N)C(=O)O)C(=O)O` (stereo not drawn) [CYSTINE], the LC retention time was found to be 0.61 min. For `Nc1ccn(C2OC(CO)C3OP(=O)(O)OC32)c(=O)n1` (stereo not drawn) [CYTIDINE 2'-3'-CYCLIC PHOSPHATE], the LC retention time is 0.7 min. Consider `Nc1ccn(C2OC(COP(=O)(O)OP(=O)(O)O)C(O)C2O)c(=O)n1` (stereo not drawn) [CYTIDINE DIPHOSPHATE], for which the LC retention time was found to be 1.2 min. Regarding `Nc1ccn(C2OC(CO)C(O)C2O)c(=O)n1` (stereo not drawn) [CYTIDINE], the LC retention time amounted to 0.78 min.

Consider `Nc1ccnc(=O)[nH]1` [CYTOSINE], for which the LC retention time is 0.65 min.

Consider `CN1C(=O)CCC1c1cccnc1` (stereo not drawn) [Cotinine], for which the LC retention time was 0.83 min. For `O=c1ccc2ccccc2o1` [Coumarin] the value was 6.42 min; for `O=C[C@H](O)[C@H](O)CO` [D-(-)-Erythrose], 0.7 min; for `O=CC(O)C1OC(=O)C(O)C1O` [D-GLUCURONOLACTONE], 0.71 min. On to `O=P(O)(O)OCC1OC(O)C(O)C1O` [D-RIBOSE 5-PHOSPHATE], for which the LC retention time was determined as 0.65 min.

Turning to `Nc1ncnc2c1ncn2C1CC(O)C(COP(=O)(O)O)O1` (stereo not drawn) [DEOXYADENOSINE MONOPHOSPHATE], the LC retention time was 0.84 min. With `Nc1ncnc2c1ncn2C1CC(O)C(CO)O1` (stereo not drawn) [DEOXYADENOSINE], the LC retention time was determined as 1.09 min. On to `C[N+](C)(C)CCCC(=O)O` [DEOXYCARNITINE], for which the LC retention time turned out to be 0.67 min. For `CC(=O)OCC(=O)C1CCC2C3CCC4=CC(=O)CCC4(C)C3CCC12C` (stereo not drawn) [DEOXYCORTICOSTERONE ACETATE] the value was 9.25 min.

Consider `Nc1ccn(C2CC(O)C(COP(=O)(O)O)O2)c(=O)n1` (stereo not drawn) [DEOXYCYTIDINE MONOPHOSPHATE], for which the LC retention time is 0.74 min. For `Nc1ccn(C2CC(O)C(COP(=O)([O-])OP(=O)([O-])[O-])O2)c(=O)n1` (stereo not drawn) [DEOXYCYTIDINE-DIPHOSPHATE], the LC retention time came out at 1.13 min. To `Nc1ccn(C2CC(O)C(CO)O2)c(=O)n1` (stereo not drawn) [DEOXYCYTIDINE] belongs 0.83 min. `Nc1nc2c(ncn2C2CC(O)C(CO)O2)c(=O)[nH]1` (stereo not drawn) [DEOXYGUANOSINE]: the LC retention time is 1.77 min. As to `O=c1ccn(C2CC(O)C(COP(=O)(O)O)O2)c(=O)[nH]1` (stereo not drawn) [DEOXYURIDINE-MONOPHOSPHATE], the LC retention time was found to be 0.82 min. Take `O=c1ccn(C2CC(O)C(CO)O2)c(=O)[nH]1` (stereo not drawn) [DEOXYURIDINE]: the LC retention time was found to be 1.24 min. As to `CC(C)=CCCC(C)C1CCC2C3CC=C4CC(O)CCC4(C)C3CCC12C` (stereo not drawn) [DESMOSTEROL], the LC retention time stood at 13.9 min. To `CC1NC(=O)NC1CCCCCC(=O)O` (stereo not drawn) [DETHIOBIOTIN] belongs 5.47 min.

Take `CCCCCCCCCC(=O)OCC(COP(=O)([O-])OCC[N+](C)(C)C)OC(=O)CCCCCCCCC` (stereo not drawn) [DIDECANOYL-GLYCEROPHOSPHOCHOLINE]: the LC retention time is 11.1 min.

On to `OCCNCCO` [DIETHANOLAMINE], for which the LC retention time worked out at 0.6 min.

Regarding `Nc1nc2c(c(=O)[nH]1)N=C(CNc1ccc(C(=O)NC(CCC(=O)O)C(=O)O)cc1)CN2` (stereo not drawn) [DIHYDROFOLATE], the LC retention time came out at 4.54 min.

`O=C1CC(C(=O)O)NC(=O)N1` (stereo not drawn) [DIHYDROOROTATE]: the LC retention time was found to be 0.77 min. With `O=C1CCNC(=O)N1` [DIHYDROURACIL], the LC retention time worked out at 0.82 min.

As to `O=C(CO)COP(=O)(O)O` [DIHYDROXYACETONE PHOSPHATE], the LC retention time was 0.69 min.

As to `NCCc1ccc(O)c(O)c1` [DOPAMINE], the LC retention time was 0.83 min.

Regarding `CCCCCCCCCC(=O)OC(CC(=O)[O-])C[N+](C)(C)C` [Decanoyl-L-carnitine], the LC retention time stood at 7.63 min. To `CC(=O)C1C(=O)C=C(C)OC1=O` (stereo not drawn) [Dehydroacetic acid] belongs 6.42 min. Regarding `CNCC(O)c1ccc(O)c(O)c1` (stereo not drawn) [EPINEPHRINE], the LC retention time turned out to be 0.74 min. For the compound `CCCCCCCCC=CCCCCCCCCCCCC(=O)O` [ERUCATE], the LC retention time is 13.5 min. With `CC12CCC3c4ccc(O)cc4CCC3C1CCC2O` (stereo not drawn) [ESTRADIOL-17ALPHA], the LC retention time amounted to 8.07 min. For `CCOC(=O)Cc1c[nH]c2ccccc12` [ETHYL 3-INDOLEACETATE] the value was 8.03 min. As for `CCC(C(=O)O)C(=O)O` [ETHYLMALONATE], the LC retention time came out at 3.77 min.

As to `COc1cc(C=CC(=O)O)ccc1O` [FERULATE], the LC retention time came to 5.67 min. Consider `Nc1nc2ncc(CNc3ccc(C(=O)NC(CCC(=O)O)C(=O)O)cc3)nc2c(=O)[nH]1` (stereo not drawn) [FOLATE], for which the LC retention time was determined as 4.68 min. `O=P(O)(O)OCC1OC(O)(CO)C(O)C1O` (stereo not drawn) [FRUCTOSE 6-PHOSPHATE]: the LC retention time is 0.66 min. Take `OCC1OC(O)C(O)C(O)C1O` (stereo not drawn) [GALACTOSE]: the LC retention time stood at 0.64 min. Consider `O=C1OC(CO)C(O)C(O)C1O` (stereo not drawn) [GLUCONOLACTONE], for which the LC retention time was found to be 0.64 min. Take `NC(C(=O)O)C(O)C(O)C(O)CO` (stereo not drawn) [GLUCOSAMINATE]: the LC retention time is 0.62 min. For `NC1C(O)OC(COP(=O)(O)O)C(O)C1O` (stereo not drawn) [GLUCOSAMINE 6-PHOSPHATE], the LC retention time is 0.6 min. In the case of `NC1C(O)OC(COS(=O)(=O)O)C(O)C1O` (stereo not drawn) [GLUCOSAMINE 6-SULFATE], the LC retention time turned out to be 0.62 min. Regarding `O=CC(O)CO` (stereo not drawn) [GLYCERALDEHYDE], the LC retention time amounted to 0.64 min. To `O=P(O)(O)OCC(O)CO` (stereo not drawn) [GLYCEROL 3-PHOSPHATE] belongs 0.67 min. Regarding `CCCCCCCCCCCCCC(=O)OCC(O)CO` (stereo not drawn) [GLYCEROL-MYRISTATE], the LC retention time is 11.2 min. For the compound `OCC(O)CO` [GLYCEROL], the LC retention time worked out at 0.68 min. Regarding `NC(N)=NCC(=O)O` [GUANIDINOACETATE], the LC retention time was determined as 0.62 min. Regarding `NC(N)=NC(CC(=O)O)C(=O)O` (stereo not drawn) [GUANIDINOSUCCINATE], the LC retention time was determined as 0.67 min.

On to `Nc1nc2nc[nH]c2c(=O)[nH]1` [GUANINE], for which the LC retention time was determined as 0.78 min. For `Nc1nc2c(ncn2C2OC(COP(=O)(O)OP(=O)(O)OC3OC(CO)C(O)C(O)C3O)C(O)C2O)c(=O)[nH]1` (stereo not drawn) [GUANOSINE DIPHOSPHATE MANNOSE], the LC retention time is 4.1 min. As for `Nc1nc2c(ncn2C2OC(COP(=O)(O)O)C(O)C2O)c(=O)[nH]1` (stereo not drawn) [GUANOSINE MONOPHOSPHATE], the LC retention time was 0.81 min. With `Nc1nc2c(ncn2C2OC(CO)C(O)C2O)c(=O)[nH]1` (stereo not drawn) [GUANOSINE], the LC retention time was found to be 1.26 min. With `NCC(=O)NCC(=O)O` [Gly-Gly], the LC retention time was determined as 0.62 min. Take `[NH3+]CC(=O)N1CCCC1C(=O)[O-]` (stereo not drawn) [Gly-Pro]: the LC retention time was 0.82 min. Regarding `CCCCCCCCCCCCCCCCC(=O)O` [HEPTADECANOATE], the LC retention time was found to be 12.7 min. With `O=C(O)CNC(=O)c1ccccc1` [HIPPURATE], the LC retention time came to 4.92 min. For `NC(CO)Cc1cnc[nH]1` (stereo not drawn) [HISTIDINOL], the LC retention time amounted to 0.54 min. On to `NC1CCSC1=O` (stereo not drawn) [HOMOCYSTEINE THIOLACTONE], for which the LC retention time is 0.72 min.

Consider `NC(CCS)C(=O)O` (stereo not drawn) [HOMOCYSTEINE], for which the LC retention time was found to be 0.72 min. `NC(CCSSCCC(N)C(=O)O)C(=O)O` (stereo not drawn) [HOMOCYSTINE]: the LC retention time is 0.72 min. As for `NC(CCO)C(=O)O` (stereo not drawn) [HOMOSERINE], the LC retention time was found to be 0.62 min. For `COc1cc(CC(=O)O)ccc1O` [HOMOVANILLATE] the value was 5.13 min; for `Nc1c(O)cccc1C(=O)CC(N)C(=O)O` (stereo not drawn) [HYDROXYKYNURENINE], 0.88 min; for `O=C(O)C(O)Cc1ccc(O)cc1` (stereo not drawn) [HYDROXYPHENYLLACTATE], 4.38 min. With `NCCS(=O)O` [HYPOTAURINE], the LC retention time was found to be 0.63 min. For `O=c1[nH]cnc2nc[nH]c12` [HYPOXANTHINE] the value was 0.83 min; for `CCCCCC(=O)OC(CC(=O)[O-])C[N+](C)(C)C` [Hexanoyl-L-carnitine], 5.67 min. With `NC(=O)Cc1c[nH]c2ccccc12` [INDOLE-3-ACETAMIDE], the LC retention time came to 5.37 min. With `OCCc1c[nH]c2ccccc12` [INDOLE-3-ETHANOL], the LC retention time came out at 6.28 min. For the compound `COC(=O)Cc1c[nH]c2ccccc12` [INDOLE-3-METHYL ACETATE], the LC retention time came out at 7.44 min. As to `O=C(O)C(=O)Cc1c[nH]c2ccccc12` [INDOLE-3-PYRUVATE], the LC retention time stood at 6 min.
